{"source": "patent US20210015944A1", "about": "“Targeted Doxorubicin-Gold Nanocojugates for Tumor Therapy” (The Curators of the University of Missouri, priority 2017, published 2021)", "key": {"[1]": {"system": "PC3 human prostate cancer cells", "test": "In vitro cytotoxicity MTT assay, GRP expressing cells", "format": "cell-based", "settings": "PC-3, 24 hour incubation, based on total weight of nanoconjugate, read-out: IC50, Nanoconjugate Conc.", "protocol": "(§1) Cell culture: PC-3 human prostate and MDA-MB231 human breast carcinoma cells (ATCC, USA) were grown in RPMI 1640 medium (obtained from Gibco BRL, Grand Island, N.Y.) supplemented with 4.5 g/L D-glucose, 25 mM Hepes, 0.11 g/L sodium pyruvate, 1.5 g/L sodiumbicarbonate, 2 mM L-glutamine, 10% heat-inactivated fetal bovine serum (Atlanta Biologicals, USA) and 1% penicillin/streptomycin antibitiotic solution. Cells were cultured in a humidified atmosphere of 95% air and 5% CO2 at 37° C. (Thermo Scientific, USA), with the medium changed every other day. The cells were adherent in monolayers and when confluent were harvested from the cell culture flasks with trypsin—EDTA (Invitrogen) and seeded further apart.\nIn vitro Cytotoxicity Assay: In vitro cytotoxicity evaluation of NP1-DOX and NP2-DOX with respective controls such as NP1, NP2, free doxorubicin was performed on GRP expressing and non-expressing cancer cells, PC3 and MDA-MB-231, respectively. The cytotoxicity evaluation was performed in triplicates and the protocol was followed as described by the manufacturer. […] The plates were kept for 2 hours in dark at 25° C. to dissolve all crystals, and the intensity of developed color was measured by micro plate reader (Epoch, BioTek, USA) operating at 570 nm wavelength. […]"}, "[2]": {"system": "MDA-MB-231 human breast cancer cells", "test": "In vitro cytotoxicity MTT assay, non-GRP expressing cells", "format": "cell-based", "settings": "MDA-MB231 cells; for IC50: Homo sapiens, MDA-MB-231", "protocol": "as §1\nIn vitro Cytotoxicity Assay: In vitro cytotoxicity evaluation of NP1-DOX and NP2-DOX with respective controls such as NP1, NP2, free doxorubicin was performed on GRP expressing and non-expressing cancer cells, PC3 and MDA-MB-231, respectively. The cytotoxicity evaluation was performed in triplicates and the protocol was followed as described by the manufacturer. Briefly, 1×10^5 ml^−1 cells at the exponential growth phase were placed in a flat bottom 96-well polystyrene-coated plate and were incubated for 12 hour in a CO2 incubator at 5% CO2 and 37° C. A series of concentrations ranging from 0 to 10 ug/mL (0, 0.31, 0.625, 1.25, 2.5, 5.0 and 10 μg/mL) of NP1-Dox and NP2-Dox was prepared in the medium. Each concentration was added to the plate in quadruplets. After 24 hour incubation, 10 μL per well MTT (as received from the manufacturer, Promega Corporation, USA) was added and kept for 4 hours, and the formazan crystals so formed were dissolved in 100 μL detergent/solubilizing buffer. The plates were kept for 2 hours in dark at 25° C. to dissolve all crystals, and the intensity of developed color was measured by micro plate reader (Epoch, BioTek, USA) operating at 570 nm wavelength. Wells with complete medium, nanoparticles, and MTT, but without cells, were used as blanks. Untreated cells were considered 100% viable. […]"}}, "note": "Read-outs that look alike come from different tables or passages of the source.", "data": [{"smiles": "COc1cccc2c1C(=O)c1c(O)c3c(c(O)c1C2=O)C[C@@](O)(C(=O)CO)C[C@@H]3O[C@H]1C[C@H](N)[C@H](O)[C@H](C)O1", "note": "[Doxorubicin]", "values": [{"measurement": "IC50", "setting": "[1]", "result": 9.5, "unit": "µg/mL"}, {"measurement": "IC50", "setting": "[2]; 24 hour incubation, MTT, based on total weight of nanoconjugate, read-out: IC50, Nanoconjugate Conc.", "result": "> 10", "unit": "µg/mL"}, {"measurement": "IC50", "setting": "[2]; in terms of doxorubicin loaded (0.53 μg/mg NP1-DOX, 0.3 μg/mg NP2-DOX), read-out: IC50, Doxorubicin Conc.", "result": "> 10", "unit": "µg/mL"}, {"measurement": "IC50, Nanoconjugate Conc.", "setting": "[2]; 24 hour incubation, MTT, based on total weight of nanoconjugate", "result": ">10", "unit": "µg/mL"}]}]}
